Experimental data taken from the NIST ThermoML archive (doi:10.1016/j.jct.2018.06.015).

Experiment: xn = mol fraction of the nth substance listed
Conditions: 100 kPa, Liquid; for speed of sound: Frequency=3 MHz, Single path-length method; for mass density: Vibrating tube method

CCCCOCCOCCO [3,6-dioxa-1-decanol] + CCCCCCO
Conditions | mass density, 293.15 K [kg/m3] | mass density, 298.15 K [kg/m3] | speed of sound, 293.15 K [m/s] | speed of sound, 298.15 K [m/s] | speed of sound, 303.15 K [m/s]
x1 = 0.0612 | 830.032 | 826.42 | 1323.2 | 1306.7 | 1289.7
x1 = 0.1016 | 836.858 | 833.209 | 1325.7 | 1309 | 1292.1
x1 = 0.1593 | 846.323 | 842.636 | 1329.1 | 1312.2 | 1295.4
x1 = 0.2053 | 853.619 | 849.892 | 1331.8 | 1314.9 | 1298.2
x1 = 0.251 | 860.647 | 856.892 | 1334.4 | 1317.5 | 1301
x1 = 0.3095 | 869.401 | 865.605 | 1337.5 | 1320.9 | 1304.2
x1 = 0.4054 | 883.079 | 879.224 | 1343.2 | 1326.3 | 1309.8
x1 = 0.5021 | 896.077 | 892.169 | 1348.5 | 1331.7 | 1314.9
x1 = 0.6049 | 909.164 | 905.192 | 1354.2 | 1337.5 | 1320.8
x1 = 0.6982 | 920.378 | 916.352 | 1359.8 | 1342.7 | 1326.1
x1 = 0.801 | 931.924 | 927.842 | 1365.5 | 1348.7 | 1331.8
x1 = 0.8313 | 935.198 | 931.096 | 1367.2 | 1350.3 | 1333.3
x1 = 0.9042 | 942.783 | 938.65 | 1372.5 | 1354.8 | 1338.3
x1 = 1 | 952.288 | 948.1 | 1378.2 | 1361.3 | 1344.5
